What was measured:
mesenteric artery = assay: Relaxation of rabbit mesenteric artery contracted with KCl (isolated helical strip); type: cell-based; details: Oryctolagus cuniculus; concentration for 50% relaxation (complete relaxation = 100%); KCl 15-20 mM contraction; read-out: Relaxation of Mesenteric Artery ED50
Experimental: When, for example, N-(2-guanidinoethyl)-5-isoquinolinesulfonamide, i.e., compound (2) was added and a complete relaxation was designated 100%, the concentration which could bring about a relaxation of 50%, i.e., ED50 was 1 μM.
After a home bred rabbit of a Japanese species weighing about 3 Kg was subjected to bloodletting, resulting in death and then to abdominal incision, the mesenteric artery was taken out, cut into helicoids of 2 mm×25 mm and suspended in a 20 ml organ bath filled with a Krebs-Henseleit solution into which a mixed gas of 95% by volume of O2 and 5% by volume of CO2 was introduced and one end of the artery was connected with an isometric transducer. When a load of 1.5 g was applied to the artery, the contraction and the relaxation of the artery were recorded as a weight on the transducer (a product of Nippon Koden K.K., Japan, "FD Pickup TB-912T"). The relaxation of the mesenteric artery was observed by adding the isoquinolinesulfonamide derivatives and their pharmaceutically acceptable acid addition salts of this invention to the mesenteric artery at the condition of about one half of the maximum contraction with KCl concentration of 15-20 mM. When the complete relaxation of the mesenteric artery was designated 100%, the concentration of the isoquinolinesulfonamide derivatives and their pharmaceutically acceptable acid addition salts which brought about a relaxation of 50% is shown in Table 26.

femoral artery = assay: Effect on blood flow volume in femoral artery of anesthetized dogs; type: in vivo, dog of mixed breed; details: intravenous
Experimental: (§1) The effect of the isoquinolinesulfonamide derivatives and the pharmaceutically acceptable acid addition salts of this invention on the vasodilatation of the femoral and vertebral arteries can be measured by anesthetizing a dog of mixed breed weighing 8 to 15 Kg by an intravenous administration of 35 mg/Kg of pentbarbital, providing an acute type probe (a product of Nippon Koden K.K., Japan) with the femoral and vertebral arteries, administering the isoquinolinesulfonamide derivatives and the pharmaceutically acceptable acid addition salts to the femoral vein through a polyethylene tube inserted into the femoral vein side chain and measuring the blood flow volume with an electromagnetic flowmeter (a product of Nippon Koden K.K., Japan, "MFV-1200"). 1 mg/Kg of N-(2-guanidinoethyl)-5-isoquinolinesulfonamide, i.e., Compound (2) was intravenously administered, the increased blood flow volumes in the vertebral artery and in the femoral artery were 95% and 37%. And the duration time is more than 30 minutes.
(§2) The effect on the vasodilatation of the femoral and vertebral arteries was measured by anesthetizing a dog of mixed breed weighing 8 to 15 Kg by an intravenous administration of 35 mg/Kg of pentbarbital, providing an acute type probe (a product of Nippon Koden K.K., Japan) with the femoral and vertebral arteries, administering to the femoral vein through a polyethylene tube inserted into the femoral vein side chain, measuring the blood flow volume with an electromagnetic blood flowmeter (a product of Nippon Koden K.K., Japan, "MFV-1200") and measuring the change of blood pressure.

vertebral artery = assay: Effect on blood flow volume in vertebral artery of anesthetized dogs; type: in vivo, dog of mixed breed; details: intravenous
Experimental: as §1, §2

[1] = tested on: femoral and vertebral arteries; assay: Duration time of effect in anesthetized dogs (blood flow volume / blood pressure); type: in vivo, dog of mixed breed; details: intravenous
Experimental: as §1, §2

[2] = Hypotensive action (change of blood pressure) in anesthetized dogs; type: in vivo, dog of mixed breed; details: intravenous
Experimental: as §2

Acute toxicity in mice = details: mouse, in vivo; intravenous administration, male ddY-strain mice; hydrochloric acid salt
Experimental: The acute toxicity of the N-(2-guanidinoethyl)-5-isoquinolinesulfonamide dihydrochloride was measured by giving male ddY-strain mouse and rat an intravenous administration and an oral administration.
The acute toxicity of the hydrochloric acid salt of other compounds was measured by giving male ddY-strain mice an intravenous administration.

Compound | EC50 (mesenteric artery) [µM] | other results
CC(C)C(CNS(=O)(=O)c1cccc2cnccc12)NC(=N)N (centres unmarked) [Compound 19, N-(2-Guanidino-3-methylbutyl)-5-isoquinolinesulfonamide] | 15 | –
N=C(N)NCCCC(CNS(=O)(=O)c1cccc2cnccc12)Cc1ccccc1 (centres unmarked) [Compound 39, N-(5-Guanidino-2-benzylpentyl)-5-isoquinolinesulfonamide] | 13 | –
N=C(N)NCCCCCNS(=O)(=O)c1cccc2cnccc12 [Compound 5, N-(5-Guanidinopentyl)-5-isoquinolinesulfonamide] | 3 | –
CCN=C(NCC)NCCNS(=O)(=O)c1cccc2cnccc12 [Compound 54, N-[2-(2,3-Diethylguanidino)ethyl]-5-isoquinolinesulfonamide] | 12 | –
CC1CN(S(=O)(=O)c2cccc3cnccc23)C(C)CN1C(=N)N (centres unmarked) [Compound 49, 4-Amidino-2,5-dimethyl-1-(5-isoquinolinesulfonyl)piperazine] | 1 | –
N=C(N)NCC(CCNS(=O)(=O)c1cccc2cnccc12)c1ccccc1 (centres unmarked) [Compound 37, N-(4-Guanidino-3-phenylbutyl)-5-isoquinolinesulfonamide] | 10 | –
N=C(N)NCC(CNS(=O)(=O)c1cccc2cnccc12)Cc1ccccc1 (centres unmarked) [Compound 34, N-(3-Guanidino-2-benzylpropyl)-5-Isoquinolinesulfonamide] | 2 | –
CC(NC(=N)N)C(C)NS(=O)(=O)c1cccc2cnccc12 (centres unmarked) [Compound 41, N-(2-Guanidino-1-methylpropyl)-5-isoquinolinesulfonamide] | 8 | –
CCN=C(N)NCCNS(=O)(=O)c1cccc2cnccc12 [Compound 55, N-[2,(3-Ethylguanidino)ethyl]-5-isoquinolinesulfonamide] | 5 | –
N=C(N)NCCNS(=O)(=O)c1cccc2cnccc12 [Compound 2, N-(2-Guanidinoethyl)-5-isoquinolinesulfonamide] | 1 | Increased Blood Flow Volume in Femoral Artery (femoral artery; 1 mg/Kg (mm/Kg [sic])): 37%; Increased Blood Flow Volume in Vertebral Artery (vertebral artery; 1 mg/Kg (mm/Kg [sic])): 95%; Duration Time ([1]; 1 mg/Kg (table prints mm/Kg), 1 mg/kg): > 30 min; Duration Time ([1]; 1 mg/Kg (table prints mm/Kg), listed as Compound (2), 1 mg/kg): more than 30 Min.; Average Decreased Blood Pressure ([2]; 1 (mm/Kg [sic])): 32 mmHg
CC(CCNS(=O)(=O)c1cccc2cnccc12)CNC(=N)N (centres unmarked) [Compound 36, N-(4-Guanidino-3-methylbutyl)-5-isoquinolinesulfonamide] | 5 | –
N=C(N)NCCCNS(=O)(=O)c1cccc2cnccc12 [Compound 3, N-(3-Guanidinopropyl)-5-isoquinolinesulfonamide] | 2 | –
N=C(N)NCCCCCCCCCCNS(=O)(=O)c1cccc2cnccc12 [Compound 8, N-(10-Guanidinodecyl)-5-isoquinolinesulfonamide] | 15 | –
O=S(=O)(NCCNC1=NCCN1)c1cccc2cnccc12 [Compound 50, 2-[2-(5-Isoquinolinesulfonamido)ethylaminol]-2-imidazoline] | 20 | Increased Blood Flow Volume in Femoral Artery (femoral artery; 1 mg/Kg (mm/Kg [sic])): 19%; Increased Blood Flow Volume in Vertebral Artery (vertebral artery; 1 mg/Kg (mm/Kg [sic])): 65%; Duration Time ([1]; 1 mg/Kg (mm/Kg [sic])): 21 min; Average Decreased Blood Pressure ([2]; 1 (mm/Kg [sic])): 10 mmHg
CCC(CNS(=O)(=O)c1cccc2cnccc12)NC(=N)N (centres unmarked) [Compound 17, N-(2-Guanidinobutyl)-5-isoquinolinesulfonamide] | 10 | –
N=C(N)NCC(Cc1ccccc1)NS(=O)(=O)c1cccc2cnccc12 (centres unmarked) [Compound 24, N-(2-Guanidino-1-benzylethyl)-5-isoquinolinesulfonamide] | 10 | –
CCC(CNC(=N)N)NS(=O)(=O)c1cccc2cnccc12 (centres unmarked) [Compound 10, N-[(1-Guanidinomethyl)propyl]-5-isoquinolinesulfonamide] | 5 | –
N=C(N)NCC(NS(=O)(=O)c1cccc2cnccc12)c1ccccc1 (centres unmarked) [Compound 23, N-(2-Guanidino-1-phenylethyl)-5-isoquinolinesulfonamide] | 8 | –

Compound | EC50 (mesenteric artery) [µM] | other results
N=C(N)NC(CNS(=O)(=O)c1cccc2cnccc12)c1ccccc1 (centres unmarked) [Compound 25, N-(2-Guanidino-2-phenylethyl)-5-isoquinolinesulfonamide] | 10 | –
N=C(N)N1CCN(S(=O)(=O)c2cccc3cnccc23)CC1 [Compound 44, 4-Amidino-1-(5-isoquinolinesulfonyl)piperazine] | 0.6 | Increased Blood Flow Volume in Femoral Artery (femoral artery; 0.5 (mm/Kg [sic])): 29%; Increased Blood Flow Volume in Vertebral Artery (vertebral artery; 0.5 (mm/Kg [sic])): 60%; LD50 (Acute toxicity in mice): 12 mg/kg; Duration Time ([1]; 0.5 (mm/Kg [sic])): > 30 min; Average Decreased Blood Pressure ([2]; 0.5 (mm/Kg [sic])): 50 mmHg
CC(CCCCC(C)NS(=O)(=O)c1cccc2cnccc12)NC(=N)N (centres unmarked) [Compound 43, N-(6-Guanidino-1-methylheptyl)-5-isoquinolinesulfonamide] | 5 | Increased Blood Flow Volume in Femoral Artery (femoral artery; 1 mg/Kg (mm/Kg [sic])): 32%; Increased Blood Flow Volume in Vertebral Artery (vertebral artery; 1 mg/Kg (mm/Kg [sic])): 68%; LD50 (Acute toxicity in mice): 66 mg/kg; Duration Time ([1]; 1 mg/Kg (mm/Kg [sic])): 25 min; Average Decreased Blood Pressure ([2]; 1 (mm/Kg [sic])): 15 mmHg
N=C(N)NCCCCCCNS(=O)(=O)c1cccc2cnccc12 [Compound 6, N-(6-Guanidinohexyl)-5-isoquinolinesulfonamide] | 4 | –
N=C(N)NCCCCNS(=O)(=O)c1cccc2cnccc12 [Compound 4, N-(4-Guanidinobutyl)-5-isoquinolinesulfonamide] | 2 | –
CC(CNS(=O)(=O)c1cccc2cnccc12)NC(=N)N (centres unmarked) [Compound 16, N-(2-Guanidinopropyl)-5-isoquinolinesulfonamide] | 3 | –
O=S(=O)(NCCNC1=NCCCN1)c1cccc2cnccc12 [Compound 51, 2-[2-(5-Isoquinolinesulfonamido)ethylamino]-1,4,5,6-tetrahydropyrimidine] | 25 | –
CCCCC(CNC(=N)N)NS(=O)(=O)c1cccc2cnccc12 (centres unmarked) [Compound 13, N-[(1-Guanidinomethyl)pentyl]-5-isoquinolinesulfonamide] | 13 | –
N=C(N)NCCCCCCCCNS(=O)(=O)c1cccc2cnccc12 [Compound 7, N-(8-Guanidinooctyl)-5-isoquinolinesulfonamide] | 10 | –
N=C(N)NCC(CCCNS(=O)(=O)c1cccc2cnccc12)Cc1ccccc1 (centres unmarked) [Compound 38, N-(5-Guanidino-4-benzylpentyl)-5-isoquinolinesulfonamide] | 11 | –
CNC(=N)NCCNS(=O)(=O)c1cccc2cnccc12 [Compound 52, N-[2-(3-Methylguanidino)ethyl]-5-isoquinolinesulfonamide] | 7 | –
N=C(N)NCC(CNS(=O)(=O)c1cccc2cnccc12)c1ccccc1 (centres unmarked) [Compound 31, N-(3-Guanidino-2-phenylpropyl)-5-isoquinolinesulfonamide] | 2 | Increased Blood Flow Volume in Femoral Artery (femoral artery; 1 mg/Kg (mm/Kg [sic])): 30%; Increased Blood Flow Volume in Vertebral Artery (vertebral artery; 1 mg/Kg (mm/Kg [sic])): 75%; LD50 (Acute toxicity in mice): 80 mg/kg; Duration Time ([1]; 1 mg/Kg (mm/Kg [sic])): 28 min; Average Decreased Blood Pressure ([2]; 1 (mm/Kg [sic])): 15 mmHg
CC(CNC(=N)N)CNS(=O)(=O)c1cccc2cnccc12 (centres unmarked) [Compound 28, N-(3-Guanidino-2-methylpropyl)-5-isoquinolinesulfonamide] | 3 | –
CN=C(NC)NCCNS(=O)(=O)c1cccc2cnccc12 [Compound 53, N-[2-(2,3-Dimethylguanidino)ethyl]-5-isoquinolinesulfonamide] | 10 | –
N=C(N)NC(CCNS(=O)(=O)c1cccc2cnccc12)Cc1ccccc1 (centres unmarked) [Compound 35, N-(3-Guanidino-4-phenylbutyl)-5-isoquinolinesulfonamide] | 5 | –
N=C(N)N1CCCN(S(=O)(=O)c2cccc3cnccc23)CC1 [Compound 45, 4-Amidino-1-(5-isoquinolinesulfonyl)homopiperazine] | 2 | –
CC(CNC(=N)N)NS(=O)(=O)c1cccc2cnccc12 (centres unmarked) [Compound 9, N-[(2-Guanidino-1-methyl)ethyl]-5-isoquinolinesulfonamide] | 3 | –

From patent publication US4709032A, “Isoquinolinesulfonamide derivatives” (Asahi Kasei Kogyo Kabushiki Kaisha, priority 1982, dated 1987)
